Laboratory results: patent publication US11464771B2, “Bromodomain and extra-terminal protein inhibitor combination therapy” (CELGENE QUANTICEL RESEARCH, INC., priority 2016, dated 2022)

Tests used:
[1] = non-leukemic hematologic malignancies; cited from earlier work
[2] = test system: PA0165 pancreatic xenograft; test: Pancreatic xenograft PA0165, Compound A and Romidepsin; type: in vivo, NSG mice
Procedure: 3/4 is 3 days on and 4 days off; Q4D is once every 4 days; Q7D is once every 7 days; —— Control; - - - - Compound A 25 mg/kg, 3/4; - —— - —— Romidepsin 1.5 mg/kg Q4D×3; —— —— Compound A 25 mg/kg. 3/4 combined with Romidepsin 1.5 mg/kg Q7D; - - - Compound A 25 mg/kg, 3/4 combined with Romidepsin 0.75 mg/kg Q7D. Tumor volumes were plotted as mean±standard error of the mean (SEM).
3/4 is 3 days on and 4 days off; Q4D is once every 4 days. —— Control; - - - - Compound A at 25 mg/kg, 3/4; - —— - —— Romidepsin 1.5 mg/kg Q4D×3; —— —— Compound A 25 mg/kg, 3/4 combined with Romidepsin 1.5 mg/kg Q7D; - - - Compound A 25 mg/kg, 3/4 combined with Romidepsin 0.75 mg/kg Q7D.
Cohorts of 4-6 wk-old NSG mice bearing PA0165 were treated with Romidepsin at 1.5 mg/kg intravenous (IV)×3 Q4D; Compound A 25 mg/kg orally QD 3 days on then 4 days off; or with a combination of Compound A 25 mg/kg orally QD 3 days on then 4 days off and Romidepsin at 1.5 or 0.75 mg/kg IV Q7D. The treatment lasted 21 days.

locally advanced BCC = conditions: cited from earlier work
basal cell carcinoma = conditions: BCC; cited from earlier work

Cc1sc2c(c1C)C(c1ccc(Cl)cc1)=N[C@@H](CC(=O)Nc1ccc(O)cc1)c1nnc(C)n1-2 [OTX015]
patients with Grade 3 hyperglycemia [1]: 1 patient

C/C=C1\NC(=O)[C@H]2CSSCC/C=C/[C@H](CC(=O)N[C@H](C(C)C)C(=O)N2)OC(=O)[C@H](C(C)C)NC1=O [Romidepsin, (1S,4S,7Z,10S,16E,21R)-7-ethylidene4,21-diisopropyl-2-oxa-12,13-dithia-5,8,20,23-tetrazabicyclo[8.7.6]tricos-16-ene-3,6,9,19,22pentone, reference compound]
TGI ([2]; Romidepsin 1.5 mg/kg IV ×3 Q4D alone, 21 days): 45%
survival rate ([2]; day 30, Romidepsin only group): about 10%

Cc1c(C(=O)Nc2ccc(N3C[C@@H](C)O[C@@H](C)C3)nc2)cccc1-c1ccc(OC(F)(F)F)cc1 [sonidegib]
investigator-assessed responses lasting at least six months (locally advanced BCC): 60%

CS(=O)(=O)c1ccc(C(=O)Nc2ccc(Cl)c(-c3ccccn3)c2)c(Cl)c1 [vismodegib]
median duration of response (basal cell carcinoma): 7.6 months
